# Measurements: publication PMC3142157, “Sensitive and Specific Fluorescent Probes for Functional Analysis of the Three Major Types of Mammalian ABC Transporters” (PLoS ONE, 2011)
# Assays:
# CHO K1 cells = test: Dye uptake flow cytometry MDR assay (MAF / D-values), CHO K1 cells; assay type: cell-based, hamster; conditions: for D-values Post Inhibitor Treatment (compared to uninhibited cells), CsA / D-values Post Inhibitor Treatment (compared to uninhibited cells), FTC / D-values Post Inhibitor Treatment (compared to uninhibited cells), MK-571 / D-values Post Inhibitor Treatment (compared to uninhibited cells), Verapamil: CHO K1; for MAF value, Fumitremorgin C / MAF value, Probenecid / MAF value, Verapamil: CHO K1 cells, dye uptake protocol; for MAF value, Fumitremorgin C: probe with vs without fumitremorgin C; for MAF value, Probenecid: probe with vs without probenecid; for MAF value, Verapamil: probe with vs without verapamil
# Description: (§1) Detailed protocol for the MDR assay is available in the Instruction Manual for eFluxx-ID® Green or Gold Multi-Drug Resistance Assay Kit (ENZO Life Sciences, Inc., Farmingdale, NY). Briefly, on the day of the assay, cells were collected, washed with PBS and incubated with or without MDR inhibitors in the presence of the eFluxx-ID® Green or Gold probes for 30 min at 37°C and analyzed immediately by flow cytometry. eFluxx-ID® Green or Gold probes are novel xanthene-based small molecule dyes developed for the detection of MDR activity in living cells. In order to exclude dead cells in the analyses, propidium iodide (PI) or 7-actinaminomycin D (7-AAD) solution was added to the cells during the last 5 min of incubation in some experiments.
# (§2) To develop a minimal step assay procedure for the dye uptake protocol, three modifications of the protocol were investigated. One set of the cells was treated according to a general “no-wash” protocol (see Instruction Manual for the kit). In the second set of tubes, the reaction was stopped by rapid centrifugation (1 min) at relatively low speed (200×g). After washing with ice-cold PBS and discarding the supernatant, cells were re-suspended in 0.5 ml of ice-cold medium and kept on ice until flow cytometry analysis was performed. The third set of cells was simply spun down (1 min, 200×g) to remove the excess probe, resuspended in ice-cold medium and kept on ice until flow cytometry analysis was performed. eFluxx-ID® Green dye (ex/em 490/514 nm) fluorescence intensity was measured in the FL1/FITC (530/30 filter) channel, and eFluxx-ID® Gold dye (ex/em 530/555 nm) fluorescence intensity was monitored in the FL2/PE (585/42 filter) channel.
# (§3) Experiments were performed using a FACS Calibur benchtop flow cytometer (BD Biosciences, San Jose, CA) equipped with a blue (488 nm) laser, and the signals were registered in the FITC (530/30 filter), PE (585/42 filter) and PerCP (670 LP filter) channels. eFluxx-ID® Green dye fluorescence was measured in the FL1/FITC channel, and eFluxx-ID® Gold dye fluorescence, in the FL2/PE channel. Data analysis was performed using FlowJo 8.8.2 software (Tree Star, Inc., Ashland, OR).
# (§4) All of the experiments were performed at least three times. Results were expressed as mean ± S.E. Statistical comparisons were made using an unpaired two-tailed Student's t-test. A P value of <0.05 was considered significant. Flow cytometry data were analyzed by comparison of median fluorescence, by using Kolmogorov-Smirnov statistics (D-value) or by calculating MDR Activity Factor (MAF) values using the following formula: MAF = 100*((MFIinh−MFI0)/MFIinh), wherein MFIinh and MFI0 are the mean fluorescence intensity values measured in the presence and absence of inhibitor [7].
# A549 cells = test: Dye uptake flow cytometry MDR assay (MAF / D-values), A549 cells; assay type: cell-based, human; conditions: dye uptake protocol; for MAF value, Fumitremorgin C: probe with vs without fumitremorgin C; for MAF value, Probenecid: probe with vs without probenecid; for MAF value, Verapamil: probe with vs without verapamil
# Description: as §1, §2, §3, §4
# HeLa cells = test: Dye uptake flow cytometry MDR assay (MAF), HeLa cells; assay type: cell-based, human; conditions: dye uptake protocol; for MAF value, Fumitremorgin C: probe with vs without fumitremorgin C; for MAF value, Probenecid: probe with vs without probenecid; for MAF value, Verapamil: probe with vs without verapamil
# Description: as §1, §2, §3, §4
# HL-60 cells = test: Dye uptake flow cytometry MDR assay (MAF), HL-60 cells; assay type: cell-based, human; conditions: for MAF value, CsA: probe with vs without CsA; for MAF value, CsA / MAF value, Nov / MAF value, Ver: mean ± SEM; for MAF value, MK571: probe with vs without MK571, mean ± SEM; for MAF value, Nov: probe with vs without Nov; for MAF value, Ver: probe with vs without Ver
# Description: (§5) Detailed protocol for the MDR assay is available in the Instruction Manual for eFluxx-ID® Green or Gold Multi-Drug Resistance Assay Kit (ENZO Life Sciences, Inc., Farmingdale, NY). […] In order to exclude dead cells in the analyses, propidium iodide (PI) or 7-actinaminomycin D (7-AAD) solution was added to the cells during the last 5 min of incubation in some experiments. Experiments were performed using a FACS Calibur benchtop flow cytometer (BD Biosciences, San Jose, CA) equipped with a blue (488 nm) laser, and the signals were registered in the FITC (530/30 filter), PE (585/42 filter) and PerCP (670 LP filter) channels. eFluxx-ID® Green dye fluorescence was measured in the FL1/FITC channel, and eFluxx-ID® Gold dye fluorescence, in the FL2/PE channel. Data analysis was performed using FlowJo 8.8.2 software (Tree Star, Inc., Ashland, OR). All of the experiments were performed at least three times. Results were expressed as mean ± S.E. Statistical comparisons were made using an unpaired two-tailed Student's t-test. […] Additionally, HCT-8 cell line reported to overexpress both MDR1 and MRP transporters, [21] was tested. HCT-8, HCT-15, HepG2, HL-60 and HL-60/MX1 cells were grown on tissue culture dishes and on the day of assay were incubated with eFluxx-ID® Green and Gold probes with and without inhibitors according to the described dye uptake protocol (Materials and Methods) and analyzed by flow cytometry.
# HL-60/MX1 cells = test: Dye uptake flow cytometry MDR assay (MAF), HL-60/MX1 cells; assay type: cell-based, human; conditions: for MAF value, CsA: probe with vs without CsA; for MAF value, CsA / MAF value, Nov / MAF value, Ver: mean ± SEM; for MAF value, MK571: probe with vs without MK571, mean ± SEM; for MAF value, Nov: probe with vs without Nov; for MAF value, Ver: probe with vs without Ver
# Description: as §5
# HepG2 cells = test: Dye uptake flow cytometry MDR assay (MAF), HepG2 cells; assay type: cell-based, human; conditions: for MAF value, CsA: probe with vs without CsA; for MAF value, CsA / MAF value, Nov / MAF value, Ver: mean ± SEM; for MAF value, MK571: probe with vs without MK571, mean ± SEM; for MAF value, Nov: probe with vs without Nov; for MAF value, Ver: probe with vs without Ver
# Description: as §5
# HCT-8 cells = test: Dye uptake flow cytometry MDR assay (MAF), HCT-8 cells; assay type: cell-based, human; conditions: for MAF value, CsA: probe with vs without CsA; for MAF value, CsA / MAF value, Nov / MAF value, Ver: mean ± SEM; for MAF value, MK571: probe with vs without MK571, mean ± SEM; for MAF value, Nov: probe with vs without Nov; for MAF value, Ver: probe with vs without Ver
# Description: as §5
# HCT-15 cells = test: Dye uptake flow cytometry MDR assay (MAF), HCT-15 cells; assay type: cell-based, human; conditions: for MAF value, CsA: probe with vs without CsA; for MAF value, CsA / MAF value, Nov / MAF value, Ver: mean ± SEM; for MAF value, MK571: probe with vs without MK571, mean ± SEM; for MAF value, Nov: probe with vs without Nov; for MAF value, Ver: probe with vs without Ver
# Description: as §5
# [1] = dual probe treatment eFluxx-ID Gold + Pheophorbide A
# [2] = dual probe treatment eFluxx-ID Green + Pheophorbide A
# [3] = triple probe treatment CMFDA + eFluxx-ID Gold + Pheophorbide A
# [4] = triple probe treatment DiOC2(3) + eFluxx-ID Gold + Pheophorbide A
# [5] = dual probe treatment eFluxx-ID Gold + CMFDA
# [6] = dual probe treatment eFluxx-ID Gold + DiOC2(3)
Molecule,"D-values Post Inhibitor Treatment (compared to uninhibited cells), CsA (CHO K1 cells; [3])","D-values Post Inhibitor Treatment (compared to uninhibited cells), FTC (CHO K1 cells; [3])","D-values Post Inhibitor Treatment (compared to uninhibited cells), MK-571 (CHO K1 cells; [3])","D-values Post Inhibitor Treatment (compared to uninhibited cells), Verapamil (CHO K1 cells; [3])","D-values Post Inhibitor Treatment (compared to uninhibited cells), CsA (CHO K1 cells; [4])","D-values Post Inhibitor Treatment (compared to uninhibited cells), FTC (CHO K1 cells; [4])","D-values Post Inhibitor Treatment (compared to uninhibited cells), MK-571 (CHO K1 cells; [4])","MAF value, Fumitremorgin C (CHO K1 cells)","MAF value, Probenecid (CHO K1 cells)","MAF value, Verapamil (CHO K1 cells)","MAF value, Fumitremorgin C (A549 cells)","MAF value, Probenecid (A549 cells)","MAF value, Verapamil (A549 cells)","MAF value, Fumitremorgin C (HeLa cells)","MAF value, Probenecid (HeLa cells)","MAF value, Verapamil (HeLa cells)","MAF value, CsA (HCT-8 cells)","MAF value, MK571 (HCT-8 cells)","MAF value, Nov (HCT-8 cells)","MAF value, Ver (HCT-8 cells)",further results
"C=Cc1c(C)c2cc3nc(c4c5[nH]c(cc6nc(cc1[nH]2)C(C)=C6CC)c(C)c5C(=O)[C@@H]4C(=O)OC)[C@@H](CCC(=O)O)[C@@H]3C [Pheophorbide A, pheophorbide A]",0.20,0.27,0.09,0.18,0.4,0.41,0.13,22.3,8.4,0.7,36.0,14.2,4.0,5.8,0.5,0,,,,,"D-values Post Inhibitor Treatment (compared to uninhibited cells), CsA (CHO K1 cells; [1]): 0.25; D-values Post Inhibitor Treatment (compared to uninhibited cells), FTC (CHO K1 cells; [1]): 0.34; D-values Post Inhibitor Treatment (compared to uninhibited cells), MK-571 (CHO K1 cells; [1]): 0.14; D-values Post Inhibitor Treatment (compared to uninhibited cells), Verapamil (CHO K1 cells; [1]): 0.11; D-values Post Inhibitor Treatment (compared to uninhibited cells), CsA (CHO K1 cells; [2]): 0.25; D-values Post Inhibitor Treatment (compared to uninhibited cells), FTC (CHO K1 cells; [2]): 0.33; D-values Post Inhibitor Treatment (compared to uninhibited cells), MK-571 (CHO K1 cells; [2]): 0.15; D-values Post Inhibitor Treatment (compared to uninhibited cells), Verapamil (CHO K1 cells; [2]): 0.14; D-values Post Inhibitor Treatment (compared to uninhibited cells), Verapamil (CHO K1 cells; [4]): 0.17; MAF value, CsA (HL-60 cells): 6.5±1.7; MAF value, MK571 (HL-60 cells): 7.6±1.6; MAF value, Nov (HL-60 cells): 8.5±1.4; MAF value, Ver (HL-60 cells): 6.8±0.6; MAF value, CsA (HL-60/MX1 cells): 22.5±3.0; MAF value, MK571 (HL-60/MX1 cells): 10.2±3.7; MAF value, Nov (HL-60/MX1 cells): 23.4±0.8; MAF value, Ver (HL-60/MX1 cells): 7.6±3.8"
"CC(=O)Oc1ccc2c(c1)Oc1cc(OC(C)=O)ccc1C21OC(=O)c2cc(CCl)ccc21 [CMFDA, chloromethylfluorescein diacetate]",0.47,0.14,0.89,0.10,,,,0,56.9,34.3,20.7,27.1,16.6,11.4,9.0,7.6,43.0±3.2,39.2±3.6,0,21.2±3.2,"D-values Post Inhibitor Treatment (compared to uninhibited cells), CsA (CHO K1 cells; [5]): 0.49; D-values Post Inhibitor Treatment (compared to uninhibited cells), FTC (CHO K1 cells; [5]): 0.06; D-values Post Inhibitor Treatment (compared to uninhibited cells), MK-571 (CHO K1 cells; [5]): 0.91; D-values Post Inhibitor Treatment (compared to uninhibited cells), Verapamil (CHO K1 cells; [5]): 0.1; MAF value, CsA (HepG2 cells): 50.4±1.3; MAF value, MK571 (HepG2 cells): 52.2±3.8; MAF value, Nov (HepG2 cells): 7.0±1.7; MAF value, Ver (HepG2 cells): 12.8±1.3"
Calcein AM,,,,,,,,6.4,55.3,63.9,1.3,19.5,28.0,0.2,12.2,13.0,46.5±5.1,31.1±4.7,7.1±0.4,25.9±0.9,"MAF value, CsA (HCT-15 cells): 67.2±2.0; MAF value, MK571 (HCT-15 cells): 13.5±2.9; MAF value, Nov (HCT-15 cells): 4.3±2.2; MAF value, Ver (HCT-15 cells): 62.9±2.6; MAF value, CsA (HepG2 cells): 59.0±2.4; MAF value, MK571 (HepG2 cells): 40.7±4.5; MAF value, Nov (HepG2 cells): 3.0±0.1; MAF value, Ver (HepG2 cells): 22.0±2.9; MAF value, CsA (HL-60 cells): 15.2±2.5; MAF value, MK571 (HL-60 cells): 8.0±1.7; MAF value, Nov (HL-60 cells): 8.6±1.5; MAF value, Ver (HL-60 cells): 2.5±1.1; MAF value, CsA (HL-60/MX1 cells): 18.2±2.7; MAF value, MK571 (HL-60/MX1 cells): 10.8±1.8; MAF value, Nov (HL-60/MX1 cells): 5.9±1.2; MAF value, Ver (HL-60/MX1 cells): 1.6±0.3"
"CCN1C(=CC=Cc2oc3ccccc3[n+]2CC)Oc2ccccc21.[I-] [DiOC2(3), 3,3′-diethyloxacarbocyanine iodide]",,,,,0.98,0.11,0.13,0,2.4,86.6,0.9,1.0,4.2,0,0,0,24.7±0.9,9.8±1.2,0,19.1±3.7,"D-values Post Inhibitor Treatment (compared to uninhibited cells), CsA (CHO K1 cells; [6]): 0.94; D-values Post Inhibitor Treatment (compared to uninhibited cells), FTC (CHO K1 cells; [6]): 0.16; D-values Post Inhibitor Treatment (compared to uninhibited cells), MK-571 (CHO K1 cells; [6]): 0.13; D-values Post Inhibitor Treatment (compared to uninhibited cells), Verapamil (CHO K1 cells; [6]): 0.96; D-values Post Inhibitor Treatment (compared to uninhibited cells), Verapamil (CHO K1 cells; [4]): 0.98; MAF value, CsA (HCT-15 cells): 71.0±5.0; MAF value, MK571 (HCT-15 cells): 4.3±2.2; MAF value, Nov (HCT-15 cells): 0; MAF value, Ver (HCT-15 cells): 69.3±4.3"
